Patent US12629415B2, “Vaccine adjuvants” (THE PROVOST, FELLOWS, FOUNDATION SCHOLARS, AND THE OTHER …, priority 2018, dated 2026)
Entries after “also recorded” stand apart in the source; their conditions may differ.

Assays:
PBMCs or CBMCs [1] = experiment: HEK-Blue TNFα assay on supernatants; assay type: cell-based, human; conditions: CBMCs compared with PBMCs; 4, 8 or 24 hours
Protocol: (§1) Poly(I:C) (5 μg/ml) (Invivogen), Poly(dA:dT) (5 μg/ml) (Sigma-Aldrich), 2′3′ cGAMP (10 μg/ml), 5′ triphosphate double stranded RNA (5′ ppp dsRNA) (2.5 μg/ml) and HSV-60 (2 μg/ml) (all from Invivogen) were transfected into PBMCs or CBMCs using TransIT-X2 (Mirus).
(§2) Measurement of cytokines—HEK Blue TNFα/IFNα/β Assays were performed as per the manufacturer's (Invivogen) instructions using Quanti-Blue Detection Reagent. SEAP levels were determined using a spectrophotometer plate reader at 630 nm. IFNα (3425-1H-6, Mabtech) and IP-10 (DY266, R&D Systems) were detected by sandwich ELISA. IFNα ELISA used pan specific IFNα antibodies, which allows detection of IFNα subtypes 1/13, 2, 4, 5, 6, 7, 8, 10, 14, 16 and 17. BioLegend LEGENDplex™ Human Inflammation Panel (13-plex) was carried out as per manufacturer's (Biolegend) instructions to determine levels of IFNγ, IL-10, IL-12p70 and IL-23. A BD LSR Fortessa cell analyser was used to acquire samples and BioLegend LEGENDplex™ software was used for analysis.

[2] = system: adult PBMCs or neonatal CBMCs; experiment: HEK-Blue IFNα/β SEAP assay on supernatants of stimulated mononuclear cells; assay type: cell-based, human; conditions: for innate immune response in neonatal and/or paediatric blood: compared with adult blood, summary statement
Protocol: Isolation of mononuclear cells and monocytes—Primary PBMCs or CBMCs were isolated from healthy human blood or cord blood. Monocytes were isolated by negative selection using Monocyte Isolation Kit II (Miltenyi). […] Cells were cultured at 37° C., 5% CO2, 95% air in RPMI-1640, with stable 2.5 mM L-glutamine and 0.5 mM sodium pyruvate with 10% FBS (all from Sigma-Aldrich).
as §1, §2

PBMCs or CBMCs [3] = experiment: IFNα sandwich ELISA on supernatants; assay type: cell-based, human; conditions: for IFNα secretion (ELISA): CBMCs compared with PBMCs, 8 or 24 h
Protocol: as §1, §2

bovine PBMCs = experiment: Bovine IFN-γ ELISA on stimulated PBMCs; assay type: cell-based, cattle; conditions: calves <1 year old; ConA 1 μg/ml with or without LPS 100 pg/ml; 72 hours
Protocol: Bovine peripheral blood mononuclear cells were isolated from whole blood samples collected in 9m1 vacutainers containing Heparin anticoagulant. PBMCs were spun and separated using leucosep tubes (Cruinn) and a density gradient histopaque 1077 (Sigma-Aldrich) at a speed of 1200 g for 20 minutes. Red blood cell contamination was eliminated using sterile 0.25% sodium chloride (Baxter) as a lysis buffer. The cells were subsequently washed twice in PBS at a speed of 600 g for 10 minutes to remove impurities.
Cells were counted using a haemocytometer, microscope and trypan blue (Sigma Aldrich) and seeded at appropriate densities in tissue culture plates (Cruinn) containing media. The cells were incubated at 37° C. at 5% CO2 treated within hours of plating to avoid unwanted cell death.
When analysing the effects of IL-1β on T cell activation, cells were pre-treated with 250 μg/ml of IL-1 receptor antagonist (IL-1Ra) 40 minutes before stimulation with IL-1β (25 ng/ml). Cells were subsequently stimulated with concanavalin A (1 μg/ml) 1 hour after addition of IL-1β. Similarly, when analysing the effects of polydA:dT on T cell activation, cells were stimulated with polydA:dT (1 μg/ml) 1 hour before ConA treatment (1 μg/ml). LPS (100 pg/ml) primed cells were incubated with YVAD-FMK (10 μm), an inhibitor specific for caspase-1. After 40 minutes, the cells were stimulated with alum (50 μg/ml) for 24 hours and supernatants were then harvested and analysed by ELISA for IL-1β
Capture antibodies (50 μl/well), diluted in the appropriate buffers, were dispensed into the wells of high binding plates (Greiner Bio-One) and incubated overnight at room temperature or 4° C. For analysis of IL-17, the ELISA plates were pre-coated with capture antibody by the manufacturing before delivery. The wells were washed with PBS/Tween 3 times and the plates were then incubated with 150 μl of blocking buffer for 1 hour at room temperature. The plates were washed again before supernatant (neat or diluted) and recombinant standards were added for 1 hour at room temperature. Following this, the plates were washed and 50 μl of detection antibody was added to the wells for a period of 1 or 2 hours at room temperature. After washing, 50 μl diluted streptavidin-HRP was added to the plate for between 30 minutes and 1 hour. After the final wash, 50 μl of 3,3′-, 5,5′-Tetramethylbenzidine (TMB) substrate was added and the plates were incubated in the dark. The reaction was stopped by addition of 1M sulphuric acid and the absorbance readings were measured at 450 nm using a microtitre plate reader. The cytokine concentrations were calculated using a linear regression standard curve from recombinant cytokines of known concentration. Skanit™ software was used to estimate values.

PBMCs or CBMCs [4] = experiment: Quantitative RT-PCR of TNFα, IFNα and CXCL10 mRNA; assay type: cell-based, human; conditions: CBMCs vs PBMCs
Protocol: as §1
Quantitative RT-PCR—Total RNA from PBMCs or CBMCs was extracted using trizol extraction as previously described (16) and was reverse transcribed using MMLV Reverse Transcriptase (Promega) according to the manufacturer's protocol. This cDNA served as template for amplification of target genes, along with the ‘housekeeping’ gene βActin, by real-time PCR with SensiFast SYBR Green (Bioline) to determine the relative amounts of CXCL10, IFNα and TNFα mRNA. The ABI 7900HT system (Applied Biosystems) was used for real-time PCR, and the cycling threshold method (2^−(ΔΔCt)) was used for relative quantification by comparative method after normalization to βActin expression.

IRF7 = experiment: TransAM IRF7 activation assay on nuclear extracts; assay type: cell-based, human; conditions: CBMCs; LPS 15 min, CpG 1 h, Poly(I:C) transfection 1 h
Protocol: (§3) IRF3/7 activation—Active Motif TransAM™ IRF3 and IRF7 assays were carried out on nuclear extracts from PBMCs or CBMCs, harvested as per manufacturer's (Active Motif) instructions, to detect and quantify IRF3 or IRF7 activation.

IRF3 = experiment: TransAM IRF3 activation assay on nuclear extracts; assay type: cell-based, human; conditions: CBMCs
Protocol: as §3

PBMCs or CBMCs [5] = experiment: CXCL10 (IP-10) ELISA; assay type: cell-based, human; conditions: CBMCs compared with PBMCs
Protocol: as §1, §2

PBMCs or CBMCs [6] = experiment: BioLegend LEGENDplex Human Inflammation Panel; assay type: cell-based; conditions: CBMCs and PBMCs; Poly(I:C) 24 h, LPS 4 h, CpG ODN 24 h
Protocol: as §1, §2

[7] = system: mononuclear cells from cord blood, children's blood or adult blood; experiment: HEK-Blue IFNα/β and TNFα assays on mononuclear cells of cord blood, children and adults; assay type: cell-based, human; conditions: transfection 24 h, 4-24 months, 2-5 years, 6-11 years
Text: Umbilical cord blood samples were obtained from term births following normal pregnancy, labour and delivery at National Maternity Hospital (NMH), Holles St, Dublin 2. […] Venous blood from infants, children and adolescents of various ages was collected during elective surgical procedures where no indication of infection was present (such as hydrocele repair, umbilical hernia repair, onychocryptosis, orchipexy repair) in Our Lady's Children's Hospital Crumlin (OLCHC), Dublin 12. […] Volumes drawn were age and weight dependent, according to standard, approved guidelines. Ethics approval was obtained from the Ethics Committees of NMH and OLCHC and informed consent was obtained from each subject or their parent/guardian. Adult blood samples were from healthy adults, supplied by the Irish Blood Transfusion Service. • Poly(I:C), Poly(dA:dT) and cGAMP were obtained from Invivogen • Poly (dA:dT) is a repetitive synthetic double-stranded DNA sequence of poly(dA-dT)-poly(dT-dA) http://www.invivopen.com/poly-dadt-naked • Poly (I:C) comprises long strands of inosine poly(I) homopolymer annealed to strands of cytidine poly(C) homopolymer http://www.invivogen.com/polyic-hmw. • cGAMP is cyclic [G(2′,5′)pA(3′,5′)p]; Formula: […], 2Na Methodology
Isolation of mononuclear cells and monocytes—Primary PBMCs or CBMCs were isolated from healthy human blood or cord blood. Monocytes were isolated by negative selection using Monocyte Isolation Kit II (Miltenyi). Monocyte purity was assessed using CD14 staining and was routinely 85-95%. Cells were cultured at 37° C., 5% CO2, 95% air in RPMI-1640, with stable 2.5 mM L-glutamine and 0.5 mM sodium pyruvate with 10% FBS (all from Sigma-Aldrich).
as §1, §2

## CCCc1nc2c(N)nc3ccccc3c2s1 [CL075, reference compound]
PBMCs or CBMCs [1]
  TNFα production: no significant difference in TNFα production

## Nc1nc2c(ncn2[C@@H]2O[C@@H]3COP(=O)(O)O[C@H]4[C@@H](O)[C@H](n5cnc6c(N)ncnc65)O[C@@H]4COP(=O)(O)O[C@@H]2[C@@H]3O)c(=O)[nH]1 [cGAMP, cyclic [G(2′,5′)pA(3′,5′)p]]
[2]
  innate immune response in neonatal and/or paediatric blood: robust innate immune response in neonatal and/or paediatric blood
PBMCs or CBMCs [3]
  IFNα secretion (ELISA): CBMCs responded equally well or with enhanced IFNα-production when compared with PBMCs
PBMCs or CBMCs [3]; adult and neonatal cells
  level of IFNα produced, relative to Poly(I:C) or Poly(dA:dT): lower than that in response to either Poly(I:C) or Poly(dA:dT)
PBMCs or CBMCs [1]
  TNFα production: significantly more TNFα production from neonatal cells than from adult cells

## interleukin 1: cytokine interleukin 1 added with ConA [reference compound]
Bovine PBMCs
  IFN-γ secretion by ConA stimulated bovine PBMCs: enhanced IFN production

## polyinosinic-polycytidylic acid [Poly(I:C)]
[2]
  innate immune response in neonatal and/or paediatric blood: robust innate immune response in neonatal and/or paediatric blood
[2]; neonatal CBMCs compared with adult PBMCs, stimulation 4, 8 or 24 h
  type I IFN (IFNα/β) production: no inhibition of type I IFN production in CBMCs when compared to PBMCs
PBMCs or CBMCs [3]
  IFNα secretion (ELISA): equivalent or enhanced CNA sensor responses in neonates compared to adults
PBMCs or CBMCs [1]
  TNFα production: significantly more TNFα production from neonatal cells than from adult cells
PBMCs or CBMCs [4]; 4 h
  CXCL10 mRNA expression: no inhibition of transcription
PBMCs or CBMCs [4]; 24 h
  IFNα mRNA expression: no inhibition of transcription
PBMCs or CBMCs [4]; CNA 4 h, LPS 2 h
  TNFα mRNA expression: no significant difference in TNFα levels
IRF7
  IRF7 activation: not significantly activated
IRF3
  increase in IRF3 activation above basal levels: ~80%
PBMCs or CBMCs [5]
  CXCL10 protein secretion: no significant difference in the CXCL10 response between PBMCs or CBMCs
PBMCs or CBMCs [6]
  IFNγ: induces Th1 polarising IL-12p70 and IFNγ in CBMCs; also recorded: significantly increased in CBMCs compared to PBMCs; also recorded: neonates produced significantly higher levels of both IL-12p70 and IFNγ
  IL-10: low but detectable, with no significant difference between adult and cord blood cells noted; also recorded: no difference in levels of anti-inflammatory IL-10 or Th17-polarising IL-23 between neonates and adults
  IL-12p70: induces Th1 polarising IL-12p70 and IFNγ in CBMCs; also recorded: increased in CBMCs compared to PBMCs; also recorded: significantly enhanced response to Poly(I:C) transfection was found in CBMCs compared to PBMCs; also recorded: neonates produced significantly higher levels of both IL-12p70 and IFNγ
  IL-23: low but detectable, with no significant difference between adult and cord blood cells noted; also recorded: no difference in levels of anti-inflammatory IL-10 or Th17-polarising IL-23 between neonates and adults
[7]
  TNFα production across age groups: maintenance of cord blood responsiveness to CNA was also observed for both Poly(I:C) and Poly(dA:dT)-induced TNFα production to the age of 24 months
  production of type I IFN across age groups: maintained throughout childhood; also recorded: maintained up to the age of two
